According to the supplement of paper PMC10307832:

How the values were obtained:
Assay in all cases: relative viability (nuclei count vs DMSO), 5 days (fraction); higher = more cells survive
[1] = compound: C1CSC2=C(C(=O)N1)SC3=C2C=C(C=C3)O [kb NB 142-70] + Cc1cc(Nc2cc(N3CCN(C)CC3)nc(Sc3ccc(NC(=O)C4CC4)cc3)n2)n[nH]1 [Tozasertib] (partner 0.1 µM)
Outline: (§1)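 Lung cancer cell lines were pin-tool dosed in 1536-well plates on the day after seeding, with either a lone drug or a fixed anchor-drug dose plus five library-drug doses (not always all listed) in √10 steps. Nuclei were counted on 4× images after 5 days. Relative viability is the ratio of treated-well to vehicle-well nuclei counts, with each value a median of duplicate plates.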

[2] = compound: NCC(=O)Nc1ccc(-n2nc(C(F)(F)F)cc2-c2ccc3c(ccc4ccccc43)c2)cc1 + CC(=O)Nc1cccc(-n2c(=O)n(C3CC3)c(=O)c3c(Nc4ccc(I)cc4F)n(C)c(=O)c(C)c32)c1 [Trametinib] (partner 0.02 µM)
Outline: as §1

[3] = compound: C1CSC2=C(C(=O)N1)SC3=C2C=C(C=C3)O [kb NB 142-70] + Nc1nc2[nH]cc(CCc3ccc(C(=O)N[C@@H](CCC(=O)O)C(=O)O)cc3)c2c(=O)[nH]1 [Pemetrexed] (partner 0.2 µM)
Outline: as §1

[4] = compound: NCC(=O)Nc1ccc(-n2nc(C(F)(F)F)cc2-c2ccc3c(ccc4ccccc43)c2)cc1 + NC(=O)Nc1cc(-c2cccc(F)c2)sc1C(=O)N[C@H]1CCCNC1 [AZD7762] (partner 0.2 µM)
Outline: as §1

[5] = compound: C1CSC2=C(C(=O)N1)SC3=C2C=C(C=C3)O [kb NB 142-70] + Nc1ncn([C@H]2C[C@H](O)[C@@H](CO)O2)c(=O)n1 [Decitabine] (partner 2 µM)
Outline: as §1

| Cell Line | relative viability ([1]; first compound 0.1 µM) | relative viability ([1]; first compound 1 µM) | relative viability ([1]; first compound 3.162 µM) | relative viability ([2]; first compound 0.02 µM) | relative viability ([2]; first compound 0.06325 µM) | relative viability ([2]; first compound 0.2 µM) | relative viability ([2]; first compound 0.6325 µM) | relative viability ([2]; first compound 2 µM) | relative viability ([3]; first compound 0.1 µM) | relative viability ([3]; first compound 1 µM) | relative viability ([3]; first compound 3.162 µM) | relative viability ([4]; first compound 0.02 µM) | relative viability ([4]; first compound 0.06325 µM) | relative viability ([4]; first compound 0.2 µM) | relative viability ([4]; first compound 0.6325 µM) | relative viability ([4]; first compound 2 µM) | relative viability ([5]; first compound 0.1 µM) | relative viability ([5]; first compound 1 µM) | relative viability ([5]; first compound 3.162 µM) |
| --- | --- | --- | --- | --- | --- | --- | --- | --- | --- | --- | --- | --- | --- | --- | --- | --- | --- | --- | --- |
| 201T | 0.875 | 0.974 | 1.03 | 0.692 | 0.717 | 0.747 | 0.725 | 0.696 | 0.315 | 0.349 | 0.318 | 0.599 | 0.657 | 0.625 | 0.656 | 0.601 | 0.892 | 0.867 | 0.825 |
| A549 | – | – | – | – | – | – | – | – | – | – | – | – | – | – | – | – | 0.24 | 0.245 | 0.233 |
| A-427 | 0.252 | 0.221 | 0.195 | 0.722 | 0.787 | 0.866 | 0.721 | 0.783 | 0.886 | 1.01 | 0.873 | 0.757 | 0.719 | 0.854 | 0.693 | 0.786 | 0.579 | 0.568 | 0.55 |
| ABC-1 | 0.178 | 0.165 | 0.169 | – | – | – | – | – | – | – | – | 0.811 | 0.899 | – | 0.758 | 0.866 | 1.05 | 0.69 | 0.776 |
| BEN | 0.459 | 0.455 | 0.437 | 0.861 | 1.15 | 1.05 | 0.938 | 1.11 | 0.773 | 0.761 | 0.575 | 0.627 | 0.76 | 0.789 | 0.798 | 0.628 | 0.776 | 0.741 | 0.588 |
| CAL-12T | 0.36 | 0.395 | 0.267 | 0.304 | 0.401 | 0.394 | 0.339 | 0.362 | 1.11 | 1.34 | 1.27 | 0.739 | 0.622 | 0.718 | 0.669 | 0.588 | – | – | – |
| COR-L23 | 0.237 | 0.157 | 0.134 | 0.593 | 0.637 | 0.568 | 0.549 | 0.491 | 0.183 | 0.201 | 0.196 | – | – | – | – | – | 0.409 | 0.465 | 0.246 |
| COR-L 105 | 0.319 | 0.287 | 0.255 | 0.456 | 0.482 | 0.491 | 0.416 | 0.432 | 1.14 | 1.08 | 0.925 | – | – | – | – | – | 0.68 | 0.576 | 0.589 |
| ChaGo-K-1 | 0.244 | 0.246 | 0.219 | 0.832 | 0.903 | 0.882 | 0.83 | 0.842 | 0.261 | 0.26 | 0.257 | 0.81 | 0.869 | 0.807 | 0.913 | 0.897 | 0.509 | 0.515 | 0.461 |
| EKVX | 0.353 | 0.382 | 0.466 | 0.408 | 0.356 | 0.428 | 0.366 | 0.369 | 0.35 | 0.399 | 0.378 | 0.748 | 0.823 | 0.651 | 0.607 | 0.738 | 0.369 | 0.311 | 0.364 |
| EMC-BAC-2 | 0.303 | 0.302 | 0.261 | 0.824 | 0.909 | 0.877 | 0.96 | 0.887 | 0.438 | 0.483 | 0.451 | 1.09 | 1.1 | 1.1 | 1.13 | 1.16 | 1.06 | 0.994 | 1.1 |
| EPLC-272H | 0.353 | 0.217 | 0.143 | 0.269 | 0.297 | 0.305 | 0.299 | 0.303 | 0.433 | 0.386 | 0.176 | 0.362 | 0.208 | 0.196 | 0.167 | 0.149 | 0.404 | 0.303 | 0.303 |
| H3255 | 0.534 | 0.785 | 0.746 | 0.642 | 0.579 | 0.592 | 0.629 | 0.674 | 0.572 | 0.568 | 0.58 | 0.853 | 0.914 | 0.959 | 0.974 | 0.898 | 0.623 | 0.591 | 0.629 |
| HARA | 0.0886 | 0.112 | 0.0824 | 0.792 | 0.771 | 0.586 | 0.659 | 0.919 | 0.251 | 0.293 | 0.225 | 0.227 | 0.429 | 0.304 | 0.392 | 0.473 | 0.538 | 0.372 | 0.286 |
| HCC-15 | 0.427 | 0.471 | 0.227 | 0.386 | 0.416 | 0.447 | 0.369 | 0.363 | 0.227 | 0.238 | 0.227 | 1.28 | 1.13 | 1.21 | 1.36 | 1.06 | 0.618 | 0.694 | 0.553 |
| HCC-44 | 0.728 | 0.901 | 0.722 | 0.792 | 1.1 | 1.05 | 1.11 | 1.02 | 0.554 | 0.731 | 0.69 | 1 | 1.05 | 0.997 | 1.01 | 1.03 | 0.946 | 0.993 | 1.01 |
| HCC-78 | 0.389 | 0.468 | 0.411 | 0.755 | 0.807 | 0.804 | 0.788 | 0.705 | 0.896 | 0.907 | 0.899 | 0.77 | 0.597 | 0.599 | 0.668 | 0.642 | 0.683 | 0.727 | 0.677 |
| HCC-366 | 0.122 | 0.176 | 0.118 | 0.361 | 0.408 | 0.467 | 0.354 | 0.271 | 0.182 | 0.214 | 0.34 | 0.236 | 0.205 | 0.31 | 0.276 | 0.333 | 0.366 | 0.407 | 0.415 |
